{
  "source": "patent US10829446B2",
  "about": "“Aryl sulfonohydrazides” (MONASH UNIVERSITY, priority 2015, dated 2020)",
  "format_in_all_cases": "cell-based",
  "key": {"[1]": {"test_system": "Mouse embryonic fibroblasts", "test": "Bioassay 1: cellular senescence of mouse embryonic fibroblasts", "details": "for up regulation of β-galactosidase: […] after plating", "procedure": "(§1) Mouse embryonic fibroblasts are isolated from wild type or Moz heterozygous animals and cultured at 3% oxygen/5% carbon dioxide/92% nitrogen. Cells are plated at a density of 1,020 cells/cm^2 or 2,040 cells/cm^2 or 10,204 cells/cm^2. A reference value for MOZ inhibition is generated through comparison with cells with a complete null mutation of MOZ. The absence of a functional Moz gene leads to senescence in 7-14 days at 3% oxygen.\nCells are plated in triplicate cultures at 10,204 cells/cm^2 in the presence of a test compound. Compounds are tested at 500 nM, 1 μM, 2 μM, 5 μM, 10 μM and 20 μM. Control compounds include those that have a similar structure but show no activity in biochemical assays. After 48 hours, cells are passaged and counted, then replated at 10,204/cm^2. This procedure is continued for 336 hours. The total number of cells produced at each passage is then calculated and compared between treatment groups. […] Cells are analysed by flow cytometry for the absence of markers of apoptosis by staining with propidium iodide and FITC-conjugated annexin V. The level of DNA damaged is assessed by γH2A.X staining, a marker of DNA strand breaks."}, "[2]": {"test_system": "mouse embryonic fibroblasts transfected with control retroviral vector pBABE", "test": "Bioassay 4: cumulative cell counts, control vector pBABE", "details": "5 μm", "procedure": "(§2) To test if cells expressing mutant forms of RAS sensitized to senescence induction, MOZ inhibitors were combined with the ectopic expression of KRASG12V. Cells are plated in triplicate cultures at 10,204 cells/cm2 then transfected with control retroviral vectors pBABE or pBABE containing a mutant KrasG12V expression cassette. Cultures were maintained at 3% O2. Selection for transfected cells is achieved using puromycin. Compounds are tested at 0 μM 1 μM, 2.5 μM, and 5 μM. After 48 hours, cells are passaged and counted, then replated at 10,204/cm2. This procedure is continued for 336 hours. The total number of cells produced at each passage is then calculated and compared between treatment groups. Cellular senescence is determined by cell cycle arrest. Comparisons are between cells treated with vehicle only expressing the control vector, cells treated with 5 μM expressing the control vector (concentration shown in bioassay 1 to produce cellular senescence) and cells treated with 0 uM 1 μM, 2.5 μM, and 5 μM expressing the KrasV12 expressing vector vector"}, "Cdc6 mRNA": {"test_system": "Cdc6 mRNA", "test": "Bioassay 2: RT-qPCR of MOZ target genes in mouse embryonic fibroblasts", "details": "5 μM", "procedure": "as §1\nCells are plated in triplicate at 2,040 cells/cm^2 in the presence of a test compound. Compounds are tested at 500 nM, 1 μM, 2 μM, 5 μM, 10 μM and 20 μM. Control compounds include those that have a similar structure but show no activity in biochemical assays. […] RT-qPCR is used to assay the levels of MOZ target genes Ink4a, ink4b, Arf, Cdc6, Cdca8, Cdca2, E2f2, Ezh2, Skp2 and Melk."}, "[3]": {"test_system": "mouse embryonic fibroblasts expressing KrasG12V", "test": "Bioassay 4: cumulative cell counts, KrasG12V expression", "details": "for Cumulative Cell Counts: KrasG12V", "procedure": "as §2"}, "Wild type pre B cells": {"test_system": "Wild type pre B cells", "test": "Bioassay 6: proliferation curves of pre-B cells on OP9 feeder layer, wild type", "from_the_text": "(§3) Pre B cells are isolated from bone marrow according to the criterion: cell surface expression of B220, CD19, but not cKit or IgM. Proliferation curves of wild type pre-B cells and Ep-Myc pre-leukemia pre B cells are generated by counting cells cultured on OP9 cell feeder layer in the presence of the growth factor IL-7. Media is changed every two days and cells are passaged every 4 days."}, "wild type pro-B cells": {"test_system": "wild type pro-B cells", "test": "Bioassay 5: pro-B cell colony formation in methylcellulose, wild type", "procedure": "Pro-B cells are purified by positive selection using antiCD19-magnetic beads and fluorescence activated cell sorting using the criterion: cell surface expression of B220, CD19 and cKit but not IgM. After purification, 25,000 pro-B cells are seeded onto 3.5 cm culture dishes plate containing methylcellulose (MethoCult M3630, STEM CELL technologies) for 7 days. After 7 days culture, colonies in which there were more than 50 cells are counted. Subsequently, 190,000 pro-B cells are replated into methylcellulose for another 7 days of culture, followed by enumeration."}, "[4]": {"test_system": "Eμ-Myc pre-leukemia pre B cells", "test": "Bioassay 7: pre-B cell number dose response, Eμ-Myc", "procedure": "Pre B cells are isolated from bone marrow according to the criterion: cell surface expression of B220, CD19, but not cKit or IgM. Pre-B cells are cultured on OP9 cells with IL7 in the presence of compounds at concentrations from 0.01 μM to 20 μM in vitro for 4 days. Cell number is then enumerated and an IC50 is calculated."}, "[5]": {"test_system": "Eμ-Myc pre-leukemia pre-B cells", "test": "Bioassay 6: proliferation curves of pre-B cells on OP9 feeder layer, Eμ-Myc", "from_the_text": "as §3"}, "wild type pre-B cells": {"test_system": "wild type pre-B cells", "test": "Bioassay 9: cell cycle analysis (DNA content and BrdU)", "procedure": "Pre B cells are isolated from bone marrow according to the criterion: cell surface expression of B220, CD19, but not cKit or IgM. Pre-B cells are cultured on OP9 cells with IL7 in the presence of compounds at various concentrations. The stages of the cell cycle in pre-B cells with and without treatment is analysed using flow cytometry to assay, using a stain for DNA content combined with BrdU to determine the proportion of cells in S phase."}},
  "data": [
    {"smiles": "Cc1cc(-c2ccccc2)cc(C(=O)NNS(=O)(=O)c2ccccc2)c1F", "note": "[Compound 36]", "values": [
      {"measurement": "up regulation of β-galactosidase", "setting": "[1]; 5 μM", "value": 186, "unit": "%"},
      {"measurement": "up regulation of β-galactosidase", "setting": "[1]; 10 μM", "value": 195, "unit": "%"},
      {"measurement": "up regulation of β-galactosidase", "setting": "[1]; 20 μM", "value": 185, "unit": "%"},
      {"measurement": "IC50", "setting": "[1]; Mus musculus, Fibroblast, read-out: IC50 (dose at which 50% senescence occur), Bioassay 1", "value": 1.6, "unit": "µM"},
      {"measurement": "Cumulative Cell Counts", "setting": "[2]; 96 h", "value": 198333.3},
      {"measurement": "Cumulative Cell Counts", "setting": "[2]; 336 h", "value": 226600},
      {"measurement": "CDC6 mRNA % control", "setting": "Cdc6 mRNA", "value": 65.1, "unit": "%"},
      {"measurement": "Cumulative Cell Counts", "setting": "[3]; 1 μm, 96 h", "value": 128333.3},
      {"measurement": "Cumulative Cell Counts", "setting": "[3]; 1 μm, 336 h", "value": 132000},
      {"measurement": "Cumulative Cell Counts", "setting": "[3]; 2.5 μm, 96 h", "value": 141666.7},
      {"measurement": "Cumulative Cell Counts", "setting": "[3]; 2.5 μm, 336 h", "value": 94133.33},
      {"measurement": "Cumulative Cell Counts", "setting": "[3]; 5 μm, 96 h", "value": 126666.7},
      {"measurement": "Cumulative Cell Counts", "setting": "[3]; 5 μm, 336 h", "value": 50940},
      {"measurement": "cell number in the presence of mutant KRas", "setting": "[3]; in words", "value": "dose dependent decrease in cell number"},
      {"measurement": "cumulative average cell number", "setting": "Wild type pre B cells; 1 μM, Day 4", "value": 54333},
      {"measurement": "cumulative average cell number", "setting": "Wild type pre B cells; 1 μM, Day 8", "value": 73474},
      {"measurement": "cumulative average cell number", "setting": "Wild type pre B cells; 1 μM, Day 12", "value": 15097},
      {"measurement": "cumulative average cell number", "setting": "Wild type pre B cells; 5 μM, Day 4", "value": 32555},
      {"measurement": "cumulative average cell number", "setting": "Wild type pre B cells; 5 μM, Day 8", "value": 19925},
      {"measurement": "cumulative average cell number", "setting": "Wild type pre B cells; 5 μM, Day 12", "value": 0.000},
      {"measurement": "cumulative average cell number", "setting": "Wild type pre B cells; 10 μM, Day 4", "value": 26111},
      {"measurement": "cumulative average cell number", "setting": "Wild type pre B cells; 10 μM, Day 8", "value": 8192},
      {"measurement": "cumulative average cell number", "setting": "Wild type pre B cells; 10 μM, Day 12", "value": 0.000},
      {"measurement": "proliferation of wild type B cell progenitors", "setting": "Wild type pre B cells; in words, compared to vehicle", "value": "inhibited"},
      {"measurement": "colony number", "setting": "wild type pro-B cells; 1 μM, wild type pro-B cells, primary colonies", "value": 161.25},
      {"measurement": "colony number, secondary colony formation", "setting": "wild type pro-B cells; 1 μM, wild type pro-B cells, secondary colony formation", "value": 12.25},
      {"measurement": "colony formation", "setting": "wild type pro-B cells; in words, compared to vehicle", "value": "greatly inhibits colony formation"},
      {"measurement": "IC50", "setting": "[4]; B-cell, 96 h, Eμ-Myc pre-leukemia pre B cells, 4 days", "value": 0.421, "unit": "µM"},
      {"measurement": "suppression of pre B cell proliferation in cells expressing the cMyc oncogene", "setting": "[4]; in words", "value": "effective in suppression of pre B cell proliferation"},
      {"measurement": "cumulative average cell number", "setting": "[5]; 0.2 μM, Day 4", "value": 373055},
      {"measurement": "cumulative average cell number", "setting": "[5]; 0.2 μM, Day 8", "value": 1110631},
      {"measurement": "cumulative average cell number", "setting": "[5]; 0.2 μM, Day 12", "value": 464403},
      {"measurement": "cumulative average cell number", "setting": "[5]; 0.2 μM, Day 16", "value": 81501},
      {"measurement": "cumulative average cell number", "setting": "[5]; 1 μM, Day 4", "value": 172777},
      {"measurement": "cumulative average cell number", "setting": "[5]; 1 μM, Day 8", "value": 135815},
      {"measurement": "cumulative average cell number", "setting": "[5]; 1 μM, Day 12", "value": 29983},
      {"measurement": "cumulative average cell number", "setting": "[5]; 1 μM, Day 16", "value": 0},
      {"measurement": "cumulative average cell number", "setting": "[5]; 5 μM, Day 4", "value": 79444},
      {"measurement": "cumulative average cell number", "setting": "[5]; 5 μM, Day 8", "value": 33236},
      {"measurement": "cumulative average cell number", "setting": "[5]; 5 μM, Day 12", "value": 0},
      {"measurement": "cumulative average cell number", "setting": "[5]; 5 μM, Day 16", "value": 0},
      {"measurement": "proliferation of pre-leukaemic B cell progenitors", "setting": "[5]; in words, compared to vehicle", "value": "inhibited"},
      {"measurement": "cells in G0/G1 (BrdU)", "setting": "wild type pre-B cells; 1 μM", "value": 54.9},
      {"measurement": "cells in G2/M (BrdU)", "setting": "wild type pre-B cells; 1 μM", "value": 5.5},
      {"measurement": "cells in S (BrdU)", "setting": "wild type pre-B cells; 1 μM", "value": 32.7},
      {"measurement": "cells in G0/G1", "setting": "wild type pre-B cells; in words", "value": "increase in cells in G0/G1"},
      {"measurement": "cells in S-phase", "setting": "wild type pre-B cells; in words", "value": "reduction of cells in S-phase"}
    ]}
  ]
}
